Entries after “also recorded” stand apart in the source; their conditions may differ. Blank lines part the entries; values can stand above or below the molecule they belong to.
How the values were obtained:
[1] = system: Ge-con and Ge-Hsp70 melanoma cells; test: 51Chromium release assay: lysis of SAHA-treated Ge-con and Ge-Hsp70 cells by LAK cells; type: cell-based, human; details: target cells 10 μM SAHA 20 h; LAK: PBMC 4 days IL-2 100 U/ml; n=4; p=0.0030, three-way ANOVA; FIG. 9B
Experimental: (§1) The human melanoma cell line Ge, the Ge-Hsp70 and Ge-con sublines derived therefrom (clones Ge-Hsp70-A, Ge-Hsp70-C, Ge-TCR-C, and Ge-GFP-B) (15), mouse fibroblast L cells, and transfected L cells were maintained in NaHCO3-buffered DMEM supplemented with 10% FCS (Biochrom, Berlin, Germany), 2 mM L-glutamine, 1 mM sodium pyruvate, 50 μM 2-mercaptoethanol and antibiotics (100 U/ml penicillin, 100 μg/ml streptomycin) (Sigma) in Petri dishes for tissue culture (Sarstedt, Nümbrecht, Germany) at 37° C. in a 10% CO2 atmosphere. Human erythroleukemia K562 and mouse lymphoma YAC-1 cells were maintained under the same conditions in Petri dishes for suspension cells (Sarstedt). […] MICA mRNA expression was analyzed by Northern blot and cell surface expression by flow cytometry. […]
(§2) Target cells were labeled by incubating 1×10^6 cells in 200 μl HEPES-buffered DMEM containing 100 μl FCS and 50 μCi Na2^51CrO4 (ICN Biomedicals, Eschwege, Germany) for 1 h at 37° C. and washed three times with HEPES-buffered DMEM. […] Spontaneous release was determined by incubation of target cells in the absence of effector cells. […]

[2] = system: NK cells / Ge-con target cells; test: 51Chromium release assay: lysis of Ge-con melanoma target cells by isolated NK cells; type: cell-based, human
[3] = system: Ge-con and Ge-Hsp70 melanoma cells; test: Flow cytometry of cell surface MICA/B, NKG2D ligands and HSP70 on Ge melanoma cells after histone deacetylase inhibitor; type: cell-based, human; details: FIG. 9A; for HSP70 cell surface expression on Ge cells after histone deacetylase inhibitor treatment: SAHA 10 μM, 20 h, mAb RPN 1197; for MICA/B cell surface expression on Ge-con and Ge-Hsp70 cells: histone deacetylase inhibitor treatment (SAHA 10 μM, 20 h)
Experimental: (§3) The human melanoma cell line Ge, the Ge-Hsp70 and Ge-con sublines derived therefrom (clones Ge-Hsp70-A, Ge-Hsp70-C, Ge-TCR-C, and Ge-GFP-B) (15), mouse fibroblast L cells, and transfected L cells were maintained in NaHCO3-buffered DMEM supplemented with 10% FCS (Biochrom, Berlin, Germany), 2 mM L-glutamine, 1 mM sodium pyruvate, 50 μM 2-mercaptoethanol and antibiotics (100 U/ml penicillin, 100 μg/ml streptomycin) (Sigma) in Petri dishes for tissue culture (Sarstedt, Nümbrecht, Germany) at 37° C. in a 10% CO2 atmosphere. Human erythroleukemia K562 and mouse lymphoma YAC-1 cells were maintained under the same conditions in Petri dishes for suspension cells (Sarstedt). […] L cells were co-transfected by electroporation with 30 μg of the cosmid A158 (25) containing the MIC3 gene of the rhesus macaque (Macaca mulatta) which is orthologous to human MICA, and with 1 μg of the dsRED vector (Clontech, Mountain View, USA), which confers resistance to geneticin (Invitrogen, Karlsruhe, Germany). After selection with geniticin (1 mg/ml) stable clones were established by limiting dilution, tested for presence of the cosmid by PCR using specific primers (5′-GCT TGC ATT CCC TCC AGG A-3′ (SEQ ID NO: 1) and 5′-TGGACCCTCTGCAGCTGATGT-3′ (SEQ ID NO: 2), length of specific PCR product 1396 bp). MICA mRNA expression was analyzed by Northern blot and cell surface expression by flow cytometry. Four independent clones were tested as target cells for human and rhesus lymphokine-activated killer (LAK) cells with similar results, confirming that MICA expression confers susceptibility to LAK cells. Clone K43 (L-MICA) was selected for the further studies.
Flow cytometry was done on a FACScan flow cytometer (Becton Dickinson, Heidelberg, Germany) using CellQuest software. Expression of intracellular HSP70, T cell receptor (TCR) β, and green fluorescent protein (GFP) in Ge-Hsp70 and Ge-con clones, respectively, was controlled regularly by flow cytometry as described before (15). Cell surface expression of HSP70 was examined on propidium iodide negative cells by a monoclonal antibody (mAb) (RPN 1197, mouse IgG1, multimmune, Regensburg, Germany) that has been reported to detect HSP70 on the plasma membrane (28). MICA/B cell surface expression was determined with the mAb BAMO1 reacting with human MICA and MICB (mouse IgG1, Immatics, Tübingen, Germany). […] Intracellular granzyme B expression was analyzed with the mAb B18.1 (mouse IgG1, Alexis Biochemicals, Grünberg, Germany) after permeabilization of the cells with 0.25% saponin as described before for HSP70 (15). […] The percentage of NK cells in the spleens of SCID mice was determined using the pan-NK cell marker DX5 (rat IgM, PE-conjugated, Caltag Laboratories, Hamburg, Germany). […]

PBMC = test: 51Chromium release assay: lysis of L-MICA / L / K562 target cells by human PBMC or LAK cells stimulated in vitro; type: cell-based; details: for lysis of L-MICA cells by IL-2 treated PBMC, additional stimulatory effect of recombinant protein: PBMC cultured 7 days with IL-2 (100 U/ml) plus 2 μg/ml protein, compared with IL-2 only, FIG. 7A
Experimental: as §3
(§4) Splenocytes from SCID mice were obtained using a Tenbroeck homogeniser and erythrocytes were removed by incubation for 5 min in lysis buffer (155 mM NH4Cl, 10 mM KHCO3, 0.1 mM EDTA, pH 7.4-7.8). Afterwards the cells were used either directly as cytotoxic effector cells or cultured for 24 h in DMEM with 10% FCS and 20% supematant from concanavalin A stimulated lymphocytes before being used in ^51Chromium release assays. Human effector cells were obtained from the peripheral blood of healthy voluntary laboratory co-workers by density gradient centrifugation on Biocoll separating solution (Biochrom). NK cells were isolated from peripheral blood mononuclear cells (PBMC) by magnetic cell sorting (MACS) using a negative selection kit (NK cell isolation Kit II, 130-091-152; Miltenyi Biotec, Bergisch-Gladbach, Germany). […]
as §2

NK cells [4] = test: Flow cytometry of NK cell markers and intracellular granzyme B after 5 d culture; type: cell-based, human; details: IL-2 100 U/ml, TKD 2 μg/ml
Experimental: as §4, with “Germany). The kit contains a cocktail of antibodies against CD3, CD4, CD14, CD15, CD19, CD36, CD123, and CD235a. To obtain LAK cells the PBMC were cultured for 4 to 7 days in 5-ml Petri dishes for tissue culture (Sarstedt) at a density of 5 to 10×10^6 cells/ml in DMEM supplemented with 100 U/ml IL-2 (Proleukin, Chiron, Amsterdam, Netherlands). NK cells enriched by MACS were cultured in 24-well plates for tissue culture (Sarstedt) at a density of 2×10^6 cells/ml. To some cultures 2 μg/ml recombinant HSP70, recombinant HSC70, or the HSP70-derived peptide TKD (Bachem, Bubendorf, Switzerland) were added.” for “Germany).”
Flow cytometry was done on a FACScan flow cytometer (Becton Dickinson, Heidelberg, Germany) using CellQuest software. […] MICA/B cell surface expression was determined with the mAb BAMO1 reacting with human MICA and MICB (mouse IgG1, Immatics, Tübingen, Germany). […] Intracellular granzyme B expression was analyzed with the mAb B18.1 (mouse IgG1, Alexis Biochemicals, Grünberg, Germany) after permeabilization of the cells with 0.25% saponin as described before for HSP70 (15). […] The percentage of NK cells in the spleens of SCID mice was determined using the pan-NK cell marker DX5 (rat IgM, PE-conjugated, Caltag Laboratories, Hamburg, Germany). […]

NK cells [5] = test: 51Chromium release assay: lysis of L-MICA target cells by MACS-isolated NK cells or NK cell depleted PBMC; type: cell-based, human
Experimental: as §1, §2

NK cells [6] = details: shown before (27); cited from earlier work

Molecule: HSC70: His-tagged recombinant constitutively expressed HSC70 from the rat Hsc70 gene, produced in E. coli
- lysis of L-MICA cells by IL-2 treated PBMC, additional stimulatory effect of recombinant protein (PBMC): but not HSC70 was able to further activate PBMC to kill MICA expressing target cells

Molecule: HSP70: His-tagged recombinant stress-inducible HSP70 protein derived from the rat Hsp70-1 gene, produced in E. coli
- capacity of LAK cells to kill L-MICA cells (PBMC; 7 days IL-2 (100 U/ml) plus HSP70 (2 μg/ml), tested in parallel with LPS (10 ng/ml), 6 experiments, p=0.0374, FIG. 7B): significantly increased
- lysis of L-MICA cells by IL-2 treated PBMC, additional stimulatory effect of recombinant protein (PBMC): further increased lysis of the L-MICA cells

Molecule: TKDNNLLGRFELSG
- lysis of L-MICA cells by PBMC stimulated with IL-2 and TKD versus IL-2 only (PBMC; 7 days, IL-2 100 U/ml, TKD 2 μg/ml, p=0.0012, FIG. 7C): lysed L-MICA cells significantly better
- mean fluorescence intensity of NKG2D and CD94, IL-2 and TKD versus IL-2 alone (NK cells [4]): no significant difference was detectable
- intracellular granzyme B expression, IL-2 plus TKD versus IL-2 alone (NK cells [4]; 5 experiments, FIG. 10D): tendency towards increased expression
- percentage of CD56 positive NK cells, IL-2 plus TKD versus IL-2 (NK cells [4]; FIG. 10C): no difference was observed
- killing of L-MICA cells by stimulated NK cell depleted PBMC (NK cells [5]; NK cell depleted PBMC, 5 days IL-2 (100 U/ml) or IL-2 plus TKD (2 μg/ml), effector:target ratios up to 200:1, FIG. 8B): did not result in a cell population that was able to kill L-MICA cells
- activity of the NK cells against L-MICA cells (NK cells [5]; NK cell enriched fraction, 5 days IL-2 (100 U/ml) plus TKD (2 μg/ml) versus IL-2, 7 experiments, p<0.0001, FIG. 8C): significantly improve
- capability of NK cells to lyse Ge-con target cells after stimulation ([2]; NK cells 5 days IL-2 (100 U/ml) plus TKD (2 μg/ml) versus IL-2, TKD p=0.0055, three-way ANOVA, effector:target 2.5:1 and 1.25:1): increased their capability to lyse target cells
- killing of Ge-con target cells: combination of TKD treatment of NK cells and SAHA treatment of target cells ([2]; TKD 2 μg/ml plus IL-2 5 days, SAHA 10 μM 20 h, interaction p=0.0003, especially at lower effector:target ratios, FIG. 10B): acted synergistically
- ability to stimulate NK cells to lyse HSP70 cell surface positive target cells (NK cells [6]): equivalent to the full length HSP70

More lines, main results first:

- MICA/B cell surface expression on Ge-con and Ge-Hsp70 cells [3]: induced
Molecule: O=C(CCCCCCC(=O)Nc1ccccc1)NO [SAHA, suberoylanilide hydroxyamic acid]
- susceptibility of treated Ge-con and Ge-Hsp70 cells to lysis by LAK cells versus untreated cells [1]: significantly more susceptible to lysis by LAK cells than untreated cells; also recorded: lysed signifcantly better than untreated cells
- susceptibility of Ge target cells to NK cells after SAHA treatment ([2]; target cells 10 μM SAHA 20 h, p<0.0001, three-way ANOVA, effector:target 2.5:1 and 1.25:1): augmented their susceptibility to NK cells
- HSP70 cell surface expression on Ge cells after histone deacetylase inhibitor treatment [3]: not found

- MICA/B cell surface expression on Ge-con and Ge-Hsp70 cells [3]: induced
Molecule: CC(/C=C/C(=O)NO)=C\[C@@H](C)C(=O)c1ccc(N(C)C)cc1 [trichostatin A]
- HSP70 cell surface expression on Ge cells after histone deacetylase inhibitor treatment [3]: not found

From patent publication US20100034772A1, “COMPOSITIONS AND METHODS FOR IMMUNOTHERAPY” (priority 2006, published 2010)
